Measured values as given in patent US20210161997A1, “TREATING DISEASES VIA TARGETED MODULATION OF GENE SIGNALING NETWORKS” (Camp4 Therapeutics Corporation, priority 2018, published 2021).

Key:
Format in all cases: cell-based
SERPINC1 = test: RNA-seq of SERPINC1 expression in compound-treated primary human hepatocytes; settings: significance FPKM ≥1, log 2(fold change) ≥0.5, q-value ≤0.05
Procedure: Human hepatocytes were obtained from two donors from Massachusetts General Hospital, namely MGH54 and MGH63, and one donor from Lonza, namely HUM4111B. Cryopreserved hepatocytes were cultured in plating media for 16 hours, transferred to maintenance media for 4 hours. Cultured on serum-free media for 2 hours, then a compound was added. The hepatocytes were maintained on the serum-free media for 16 hours prior to gene expression analysis. Primary human hepatocytes were stored in the vapor phase of a liquid nitrogen freezer (about -130° C.). Human hepatocytes cultured as described above were plated in 24-well format, adding 375,000 cells per well in a volume of 500 ul plating medium. Four hours before treatment, cells were washed with PBS and the medium was changed to either: fresh maintenance medium (complete) or modified maintenance medium. Compound stocks were prepared at 1000× final concentration and added in a 2-step dilution to the medium to reduce risk of a compound precipitating out of solution when added to the cells, and to ensure reasonable pipetting volumes. […] The plate was mixed by carefully swirling and after all wells were treated and returned to the incubator overnight. If desired, separate plates/wells were treated with vehicle-only controls and/or positive controls. If using multi-well plates, controls were included on each plate. After about 18 hours, cells were harvested for further analysis, e.g., ChIP-seq, RNA-seq, ATAC-seq, etc. This protocol is a modified version of the following protocols: MagMAX mirVana Total RNA Isolation Kit User Guide (Applied Biosystems #MAN0011131 Rev B.0), NEBNext Poly(A) mRNA Magnetic Isolation Module ([…]), and NEBNext Ultra Directional RNA Library Prep Kit for Illumina ([…]) (New England Biosystems #E74901). […] Two hundred μl of Lysis Binding Mix was used per well of the multiwell plate containing adherent cells (usually a 24-well plate). For mRNA isolation and library prep, the NEBNext Poly(A) mRNA Magnetic Isolation Module and Directional Prep kit was used. RNA isolated from cells above was quantified, and prepared in […] of each sample in 50 μl of nuclease-free water. This protocol may be run in microfuge tubes or in a 96-well plate. […] Genomic alignments were converted to transcriptome alignments based on reference transcript annotations from the Human GENCODE Gene Set release 24 (Harrow et al., Genome Res. […] Using unique and multimapped transcriptomic alignments, gene-level abundance estimates were computed using RSEM version 1.3.0 (Li and Dewey, BMC Bioinformatics (2011) 12:323) in a strand-aware manner, and including confidence interval sampling calculations, to arrive at posterior mean estimates (PME) of abundances (counts and normalized FPKM-fragments per kilobase of exon per million mapped fragments) from the underlying Bayesian model. Standard QC were applied (read integrity, mapping statistics, library complexity, fragment bias) to remove unsatisfactory samples. Differential gene expression was computed using the negative binomial model implemented by DESeq2 version 1.16.1 (Love et al., Genome Biol. (2014) 15(12):550). […] RNA-seq signals were also normalized by read depth and visualized using the UCSC browser. To identify small molecules that modulate target gene expression, primary human hepatocytes were prepared as a monoculture, and at least one small molecule compound was applied to the cells. RNA-seq was performed to determine the effects of the compounds on the expression of the target genes in hepatocytes. Fold change was calculated by dividing the level of expression in the cell system that had been perturbed by the level of expression in an unperturbed system.

UGT1A1 = test: RNA-seq of UGT1A1 expression in compound-treated primary human hepatocytes
Outline: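 Cryopreserved primary human hepatocytes from three donors were plated in 24-well format, then treated with compound diluted from 1000× stocks in serum-free maintenance medium for about 16–18 h. Poly(A) RNA-seq log2 fold change was computed against vehicle/pan-experiment controls. Significance required FPKM ≥1, log2FC ≥0.5 and q ≤0.05.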

CPOX = test: RNA-seq of CPOX expression in compound-treated primary human hepatocytes; settings: RNA-seq, primary human hepatocytes; significance FPKM ≥0.5, log 2(fold change) ≥0.3, q-value ≤0.05
Procedure: Human hepatocytes were obtained from two donors from Massachusetts General Hospital, namely MGH54 and MGH63, and one donor from Lonza, namely HUM4111B. Cryopreserved hepatocytes were cultured in plating media for 16 hours, transferred to maintenance media for 4 hours. Cultured on serum-free media for 2 hours, then a compound was added. The hepatocytes were maintained on the serum-free media for 16 hours prior to gene expression analysis. Primary human hepatocytes were stored in the vapor phase of a liquid nitrogen freezer (about −130° C.).
Human hepatocytes cultured as described above were plated in 24-well format, adding 375,000 cells per well in a volume of 500 ul plating medium. Four hours before treatment, cells were washed with PBS and the medium was changed to either: fresh maintenance medium (complete) or modified maintenance medium.
Compound stocks were prepared at 1000× final concentration and added in a 2-step dilution to the medium to reduce risk of a compound precipitating out of solution when added to the cells, and to ensure reasonable pipetting volumes. One at a time, each compound was first diluted 10-fold in warm (about 37° C.) modified maintenance medium (initial dilution=ID), mixed by vortexing, and the ID was diluted 100-fold into the cell culture (e.g. 5.1 ul into 1 well of a 24-well plate containing 0.5 mL medium). The plate was mixed by carefully swirling and after all wells were treated and returned to the incubator overnight. If desired, separate plates/wells were treated with vehicle-only controls and/or positive controls. If using multi-well plates, controls were included on each plate. After about 18 hours, cells were harvested for further analysis, e.g., ChIP-seq, RNA-seq, ATAC-seq, etc.
This protocol is a modified version of the following protocols: MagMAX mirVana Total RNA Isolation Kit User Guide (Applied Biosystems #MAN0011131 Rev B.0), NEBNext Poly(A) mRNA Magnetic Isolation Module (E7490), and NEBNext Ultra Directional RNA Library Prep Kit for Illumina (E7420) (New England Biosystems #E74901).
The MagMAX mirVana kit instructions (the section titled “Isolate RNA from cells” on pages 14-17) were used for isolation of total RNA from cells in culture. Two hundred μl of Lysis Binding Mix was used per well of the multiwell plate containing adherent cells (usually a 24-well plate).
For mRNA isolation and library prep, the NEBNext Poly(A) mRNA Magnetic Isolation Module and Directional Prep kit was used. RNA isolated from cells above was quantified, and prepared in […] of each sample in 50 μl of nuclease-free water. This protocol may be run in microfuge tubes or in a 96-well plate.
Standard QC were applied (read integrity, mapping statistics, library complexity, fragment bias) to remove unsatisfactory samples. […] Log 2 fold change and significance values were computed using PME count data (with replicates explicitly modeled versus pan-experiment controls), median ratio normalized, using maximum likelihood estimation rather than maximum a posteriori, and disabling the use of Cook's distance cutoff when determining acceptable adjusted p-values. […] RNA-seq signals were also normalized by read depth and visualized using the UCSC browser.
To identify small molecules that modulate target gene expression, primary human hepatocytes were prepared as a monoculture, and at least one small molecule compound was applied to the cells.
RNA-seq was performed to determine the effects of the compounds on the expression of the target genes in hepatocytes. Fold change was calculated by dividing the level of expression in the cell system that had been perturbed by the level of expression in an unperturbed system. Changes in expression having a p-value ≤0.05 were considered significant.
Significance was defined as an FPKM ≥0.5 a log 2(fold change) ≥0.3, and a q-value of ≤0.05.

S=C(NCc1ccc2c(c1)OCO2)N1CCN(c2ncnc3c2oc2ccccc23)CC1 [Amuvatinib]
SERPINC1 Fold Change (Log2) (SERPINC1): 1.33 Log2 | UGT1A1 Fold Change (Log2) (UGT1A1): 0.61 Log2

O=C1CCC(N2C(=O)c3ccccc3C2=O)C(=O)N1 (stereo not shown) [Thalidomide]
SERPINC1 Fold Change (Log2) (SERPINC1): 0.88 Log2 | CPOX Fold change (Log2) (CPOX): 0.3 Log2
